Reference: patent US10392391B2 (Vertex Pharmaceuticals Incorporated, priority 2012, dated 2019)

These molecules were tested against ATR kinase (full-length ATR) (Homo sapiens (Human), UniProt Q13535) (assay: ATR inhibition assay (radioactive-phosphate incorporation)). Conditions: Ki(app), 5 nM full-length ATR, 10 μM ATP, 25° C.
Type: biochemical
Outline: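 Ki(app) was fitted by non-linear regression to background-corrected initial rates. Full-length ATR (5 nM) phosphorylated 800 μM peptide using 10 μM [γ-33P]ATP at 25° C in Tris/HCl pH 7.5 buffer with MgCl2, DTT and 7% DMSO. After 10-minute compound pre-incubation and 24-hour reaction, phosphocellulose filters were scintillation counted.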

Chain of ATR kinase (full-length ATR) (Q13535 whole entry): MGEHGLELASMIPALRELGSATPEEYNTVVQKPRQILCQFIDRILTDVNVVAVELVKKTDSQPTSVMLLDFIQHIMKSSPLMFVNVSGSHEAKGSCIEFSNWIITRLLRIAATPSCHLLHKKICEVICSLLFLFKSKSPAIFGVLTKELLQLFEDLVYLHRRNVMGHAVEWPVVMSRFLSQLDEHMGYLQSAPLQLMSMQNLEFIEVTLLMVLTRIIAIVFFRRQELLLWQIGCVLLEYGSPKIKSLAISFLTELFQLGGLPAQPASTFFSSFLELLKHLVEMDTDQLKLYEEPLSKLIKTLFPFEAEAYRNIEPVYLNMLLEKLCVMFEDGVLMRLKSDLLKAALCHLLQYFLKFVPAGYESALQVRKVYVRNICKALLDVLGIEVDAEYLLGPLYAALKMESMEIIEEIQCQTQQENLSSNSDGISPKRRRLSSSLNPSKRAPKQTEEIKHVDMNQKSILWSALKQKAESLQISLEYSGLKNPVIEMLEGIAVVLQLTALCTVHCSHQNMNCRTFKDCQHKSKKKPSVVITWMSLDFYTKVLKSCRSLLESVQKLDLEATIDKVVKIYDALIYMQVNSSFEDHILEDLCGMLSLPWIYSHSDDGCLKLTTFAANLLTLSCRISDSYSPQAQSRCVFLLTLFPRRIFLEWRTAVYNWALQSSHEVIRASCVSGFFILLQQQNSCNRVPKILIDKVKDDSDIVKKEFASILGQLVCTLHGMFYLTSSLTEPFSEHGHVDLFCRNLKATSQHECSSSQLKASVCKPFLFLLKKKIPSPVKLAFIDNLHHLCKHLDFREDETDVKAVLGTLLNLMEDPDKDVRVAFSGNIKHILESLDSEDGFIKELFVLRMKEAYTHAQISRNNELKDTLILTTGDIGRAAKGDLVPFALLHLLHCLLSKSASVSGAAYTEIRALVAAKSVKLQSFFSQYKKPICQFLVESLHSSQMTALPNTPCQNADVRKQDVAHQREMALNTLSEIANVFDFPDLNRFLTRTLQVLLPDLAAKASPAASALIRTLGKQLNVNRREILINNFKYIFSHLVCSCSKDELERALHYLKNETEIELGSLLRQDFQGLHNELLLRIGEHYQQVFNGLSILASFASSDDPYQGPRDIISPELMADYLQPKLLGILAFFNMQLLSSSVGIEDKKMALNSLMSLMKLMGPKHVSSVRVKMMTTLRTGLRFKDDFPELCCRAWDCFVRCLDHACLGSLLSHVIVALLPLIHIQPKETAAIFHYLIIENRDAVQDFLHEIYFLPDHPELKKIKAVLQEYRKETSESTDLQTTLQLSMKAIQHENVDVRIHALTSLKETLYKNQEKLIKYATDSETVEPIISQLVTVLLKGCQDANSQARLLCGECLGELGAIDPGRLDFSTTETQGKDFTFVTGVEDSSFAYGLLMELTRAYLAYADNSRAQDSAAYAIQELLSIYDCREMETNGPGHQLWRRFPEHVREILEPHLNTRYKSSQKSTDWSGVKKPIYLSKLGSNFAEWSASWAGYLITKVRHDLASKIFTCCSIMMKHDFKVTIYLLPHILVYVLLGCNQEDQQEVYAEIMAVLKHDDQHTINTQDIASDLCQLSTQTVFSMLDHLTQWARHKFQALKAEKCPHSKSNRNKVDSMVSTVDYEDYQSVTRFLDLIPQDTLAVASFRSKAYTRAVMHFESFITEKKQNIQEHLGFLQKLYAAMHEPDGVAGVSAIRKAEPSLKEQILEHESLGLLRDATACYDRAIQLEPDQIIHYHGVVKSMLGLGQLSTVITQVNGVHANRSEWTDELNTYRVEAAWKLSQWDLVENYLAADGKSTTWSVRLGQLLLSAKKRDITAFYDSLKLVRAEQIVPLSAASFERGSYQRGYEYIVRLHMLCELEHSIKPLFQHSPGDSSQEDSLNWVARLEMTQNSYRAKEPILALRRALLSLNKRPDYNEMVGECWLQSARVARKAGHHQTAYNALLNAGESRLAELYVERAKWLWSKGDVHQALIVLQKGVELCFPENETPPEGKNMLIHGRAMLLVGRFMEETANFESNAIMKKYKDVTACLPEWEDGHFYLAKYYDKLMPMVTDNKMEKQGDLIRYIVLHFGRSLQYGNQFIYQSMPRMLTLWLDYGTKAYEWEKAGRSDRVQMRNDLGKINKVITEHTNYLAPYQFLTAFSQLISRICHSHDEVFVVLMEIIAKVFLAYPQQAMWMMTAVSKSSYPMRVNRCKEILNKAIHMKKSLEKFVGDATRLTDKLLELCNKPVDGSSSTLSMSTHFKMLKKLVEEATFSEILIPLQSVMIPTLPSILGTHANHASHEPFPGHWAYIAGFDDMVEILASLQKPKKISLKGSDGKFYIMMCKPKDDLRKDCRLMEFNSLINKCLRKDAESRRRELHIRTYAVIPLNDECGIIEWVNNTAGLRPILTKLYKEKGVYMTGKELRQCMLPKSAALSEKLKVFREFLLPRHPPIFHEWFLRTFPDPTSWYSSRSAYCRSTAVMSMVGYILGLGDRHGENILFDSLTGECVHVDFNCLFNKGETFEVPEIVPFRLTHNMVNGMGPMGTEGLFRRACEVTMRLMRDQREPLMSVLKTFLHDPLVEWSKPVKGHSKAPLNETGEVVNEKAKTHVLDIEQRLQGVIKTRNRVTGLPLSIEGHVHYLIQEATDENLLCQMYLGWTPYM

Ki [nM]	SMILES
10 to 1000	Nc1nn2cc(F)cnc2c1C(=O)Nc1cncc(F)c1N1CCN(C(=O)C2CC3CCCCN3C2)CC1 (stereo not shown) [I-N-203, 2-amino-6-fluoro-N-(5-fluoro-4-(4-(octahydroindolizine-2-carbonyl)piperazin-1-yl)pyridin-3-yl)pyrazolo[1,5-a]pyrimidine-3-carboxamide]
10 to 1000	CCN1CCCCC1C(=O)N1CCN(c2c(F)cncc2NC(=O)c2c(N)nn3cc(F)cnc23)CC1 (stereo not shown) [I-N-204, 2-amino-N-(4-(4-(1-ethylpiperidine-2-carbonyl)piperazin-1-yl)-5-fluoropyridin-3-yl)-6-fluoropyrazolo[1,5-a]pyrimidine-3-carboxamide]
10 to 1000	CC(C)N1CCCC1C(=O)N1CCN(c2c(F)cncc2NC(=O)c2c(N)nn3cc(F)cnc23)CC1 (stereo not shown) [I-N-205, 2-amino-6-fluoro-N-(5-fluoro-4-(4-(1-isopropylpyrrolidine-2-carbonyl)piperazin-1-yl)pyridin-3-yl)pyrazolo[1,5-a]pyrimidine-3-carboxamide]
10 to 1000	CC(C)N1CCC(C(=O)N2CCN(c3c(F)cncc3NC(=O)c3c(N)nn4cc(F)cnc34)CC2)C1 (stereo not shown) [I-N-206, 2-amino-6-fluoro-N-(5-fluoro-4-(4-(1-isopropylpyrrolidine-3-carbonyl)piperazin-1-yl)pyridin-3-yl)pyrazolo[1,5-a]pyrimidine-3-carboxamide]
10 to 1000	CCN1CCC(C(=O)N2CCN(c3c(F)cncc3NC(=O)c3c(N)nn4cc(F)cnc34)CC2)C1 (stereo not shown) [I-N-207, 2-amino-N-(4-(4-(1-ethylpyrrolidine-3-carbonyl)piperazin-1-yl)-5-fluoropyridin-3-yl)-6-fluoropyrazolo[1,5-a]pyrimidine-3-carboxamide]
10 to 1000	COCCS(=O)(=O)C1CCN(c2ccncc2NC(=O)c2c(N)nn3cc(F)cnc23)CC1 [I-N-208, 2-amino-6-fluoro-N-(4-(4-((2-methoxyethyl)sulfonyl)piperidin-1-yl)pyridin-3-yl)pyrazolo[1,5-a]pyrimidine-3-carboxamide]
10 to 1000	CN1CCN(c2ccncc2NC(=O)c2c(N)nn3cc(F)cnc23)CC1=O [I-N-209, 2-amino-6-fluoro-N-(4-(4-methyl-3-oxopiperazin-1-yl)pyridin-3-yl)pyrazolo[1,5-a]pyrimidine-3-carboxamide]
10 to 1000	Nc1nn2cc(F)cnc2c1C(=O)Nc1cnccc1N1CCS(=O)(=O)CC1 [I-N-210, 2-amino-N-(4-(1,1-dioxidothiomorpholino)pyridin-3-yl)-6-fluoropyrazolo[1,5-a]pyrimidine-3-carboxamide]
10 to 1000	Nc1nn2cc(F)cnc2c1C(=O)Nc1cncc(F)c1N1CCN(C(=O)C2CCN(C3COC3)CC2)CC1 [I-N-211, 2-amino-6-fluoro-N-(5-fluoro-4-(4-(1-(oxetan-3-yl)piperidine-4-carbonyl)piperazin-1-yl)pyridin-3-yl)pyrazolo[1,5-a]pyrimidine-3-carboxamide]
10 to 1000	CN1CCN(c2c(F)cncc2NC(=O)c2c(N)nn3cc(F)cnc23)CC1=O [I-N-212, 2-amino-6-fluoro-N-(5-fluoro-4-(4-methyl-3-oxopiperazin-1-yl)pyridin-3-yl)pyrazolo[1,5-a]pyrimidine-3-carboxamide]
10 to 1000	Nc1nn2cc(F)cnc2c1C(=O)Nc1cncc(F)c1N1CCC(CN2CCCC2=O)CC1 [I-N-213, 2-amino-6-fluoro-N-(5-fluoro-4-(4-((2-oxopyrrolidin-1-yl)methyl)piperidin-1-yl)pyridin-3-yl)pyrazolo[1,5-a]pyrimidine-3-carboxamide]
10 to 1000	CN1CCCCC1C(=O)N1CCN(c2c(F)cncc2NC(=O)c2c(N)nn3cc(F)cnc23)CC1 (stereo not shown) [I-N-214, 2-amino-6-fluoro-N-(5-fluoro-4-(4-(1-methylpiperidine-2-carbonyl)piperazin-1-yl)pyridin-3-yl)pyrazolo[1,5-a]pyrimidine-3-carboxamide]
10 to 1000	CS(=O)(=O)CC1CCN(c2ccncc2NC(=O)c2c(N)nn3cc(F)cnc23)CC1 [I-N-215, 2-amino-6-fluoro-N-(4-(4-((methylsulfonyl)methyl)piperidin-1-yl)pyridin-3-yl)pyrazolo[1,5-a]pyrimidine-3-carboxamide]
